Assay results: US9120749B2, “Quinoline derivatives and MELK inhibitors containing the same” (ONCOTHERAPY SCIENCE, INC., priority 2010, dated 2015)
Structures can show the parent of a compound that is named as a salt. Where two headings read alike, the source gives them in different places.

Legend:
HT-1197 cells = assay: Cell-based assay: anti-proliferative activity, Cell Counting Kit-8, 72 hours (HT-1197, negative control without MELK expression); conditions: HT1197 cells (negative control, no MELK expression), 72 hours
Outline: (§1)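 Proliferation read with Cell Counting Kit-8 after 72 hours of inhibitor treatment, from seeding of 2,000–3,000 cells/well. Lines: T47D, A549, BT-549; HT-1197, lacking MELK by western blot, served as negative control. IC50 derived.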

DU4475 cells = assay: Cell-based assay: anti-proliferative activity, Cell Counting Kit-8, 72 hours (DU4475)
MELK = MELK (Homo sapiens, UniProt Q14680); assay: Kinase assay: MELK activity, phosphorylation of FITC-labeled histone H3 peptide measured by IMAP fluorescence polarization; assay type: biochemical
Outline: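 Fluorescence polarization was measured 0.5 h (room temperature) after quenching with threefold volume of progressive binding solution. Test compounds from 12.5 mM DMSO stocks were assayed at 1% DMSO.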

T47D cells = assay: Cell-based assay: anti-proliferative activity, Cell Counting Kit-8, 72 hours (T47D)
Outline: as §1

22Rv1 cells = assay: Cell-based assay: anti-proliferative activity, Cell Counting Kit-8, 72 hours (22Rv1)
A549 cells = assay: Cell-based assay: anti-proliferative activity, Cell Counting Kit-8, 72 hours (A549); conditions: 72 hours
Outline: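 A549 cells were seeded in 96-well plates and exposed to candidate inhibitors for 72 hours. Cell growth was then measured with Cell Counting Kit-8, and IC50 values were calculated from the resulting growth data.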

[1] = MELK kinase assay, IMAP fluorescence polarization, 50 micro-M ATP, read-out: IC50 (μM) (kinase assay)
[2] = read-out: IC50 (μM) (kinase assay)

Sequence of MELK (Q14680 whole entry, looked up): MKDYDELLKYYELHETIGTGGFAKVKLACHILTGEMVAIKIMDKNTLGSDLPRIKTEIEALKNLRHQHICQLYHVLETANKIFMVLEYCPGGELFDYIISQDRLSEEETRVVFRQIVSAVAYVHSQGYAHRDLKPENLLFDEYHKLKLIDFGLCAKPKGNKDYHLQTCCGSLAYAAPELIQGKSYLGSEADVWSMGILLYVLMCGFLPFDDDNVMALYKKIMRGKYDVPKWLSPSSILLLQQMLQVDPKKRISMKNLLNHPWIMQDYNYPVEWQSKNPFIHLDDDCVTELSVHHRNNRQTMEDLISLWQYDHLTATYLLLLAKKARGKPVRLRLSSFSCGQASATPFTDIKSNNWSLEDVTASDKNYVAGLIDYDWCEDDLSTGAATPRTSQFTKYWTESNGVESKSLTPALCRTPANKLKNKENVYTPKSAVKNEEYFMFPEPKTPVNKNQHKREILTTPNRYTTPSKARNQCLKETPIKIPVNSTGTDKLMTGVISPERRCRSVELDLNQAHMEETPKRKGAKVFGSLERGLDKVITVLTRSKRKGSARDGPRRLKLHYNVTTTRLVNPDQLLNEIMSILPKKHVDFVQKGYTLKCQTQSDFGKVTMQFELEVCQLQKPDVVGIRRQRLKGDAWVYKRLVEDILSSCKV

Compound	IC50 (HT-1197 cells; Homo sapiens, HT1197, 72 h) [µM]	IC50 (DU4475 cells; Homo sapiens, DU-4475, 72 h) [µM]	IC50 (MELK; [1]) [µM]	IC50 (T47D cells; Homo sapiens, T47D, 72 h) [µM]	IC50 (22Rv1 cells; Homo sapiens, 22Rv1, 72 h) [µM]	IC50 (A549 cells; Homo sapiens, A549, 72 h) [µM]	IC50 (HT-1197 cells; hydrochloride) [µM]	IC50 (DU4475 cells; hydrochloride) [µM]	IC50 (MELK; hydrochloride, read-out: IC50 (μM) (kinase assay)) [µM]	IC50 (T47D cells; 72 hours, hydrochloride) [µM]	IC50 (22Rv1 cells; hydrochloride) [µM]	IC50 (A549 cells; hydrochloride) [µM]	IC50 (MELK; [2]) [µM]	IC50 (MELK) [µM]
CC(=O)c1cnc2ccc(-c3cc(Cl)c(O)c(Cl)c3)cc2c1Nc1ccc(OCCN(C)C)nc1 [Example 852, 1-(6-(3,5-dichloro-4-hydroxyphenyl)-4-(6-(2-(dimethylamino)ethoxy)pyridin-3-ylamino)quinolin-3-yl)ethanone hydrochloride]	22	0.088	0.0028	0.16	0.55	0.29	–	–	–	–	–	–	–	–
CC(=O)c1cnc2ccc(-c3cc(Cl)c(O)c(Cl)c3)cc2c1N[C@H]1CC[C@H](CN2CCCC2)CC1 [Example 768, 1-(6-(3,5-dichloro-4-hydroxyphenyl)-4-(trans-4-(pyrrolidin-1-ylmethyl)cyclohexylamino)quinolin-3-yl)ethanone hydrochloride]	–	–	–	–	–	–	28	0.07	0.0015	0.11	0.11	0.13	–	–
CCC(=O)c1cnc2ccc(-c3cc(F)c(O)c(Cl)c3)cc2c1Nc1ccc(N2CCC(N(C)C)C2)nc1 (stereo not drawn) [Example 860, 1-(6-(3-chloro-5-fluoro-4-hydroxyphenyl)-4-((6-(3-(dimethylamino)pyrrolidin-1-yl)pyridin-3-yl)amino)quinolin-3-yl)propan-1-one]	3.6	0.24	0.0062	0.14	0.45	0.29	–	–	–	–	–	–	–	–
CC(=O)c1cnc2ccc(-c3cc(F)c(O)c(Cl)c3)cc2c1Nc1ccc(N2CCC(N)C2)nc1 (stereo not drawn) [Example 773, 1-(4-(6-(3-aminopyrrolidin-1-yl)pyridin-3-ylamino)-6-(3-chloro-5-fluoro-4-hydroxyphenyl)quinolin-3-yl)ethanone]	0.7	0.017	–	0.0042	0.0094	0.028	–	–	–	–	–	–	0.006	–
CC(=O)c1cnc2ccc(-c3cc(Cl)c(O)c(Cl)c3)cc2c1NC1CCN(CCN(C)C)CC1 [Example 823, 1-(6-(3,5-dichloro-4-hydroxyphenyl)-4-(1-(2-(dimethylamino)ethyl)piperidin-4-ylamino)quinolin-3-yl)ethanone]	2.6	0.16	0.0027	0.21	0.32	0.45	–	–	–	–	–	–	–	–
CCN(CC)C[C@H]1CC[C@H](Nc2c(C(C)=O)cnc3ccc(-c4cc(Cl)c(O)c(Cl)c4)cc23)CC1 [Example 790]	4.2	0.098	–	0.1	0.14	0.14	–	–	–	–	–	–	0.0018	–
CCN(CC)C[C@H]1CC[C@H](Nc2c(C(C)=O)cnc3ccc(-c4cc(F)c(O)c(Cl)c4)cc23)CC1 [Example 794]	0.75	0.074	–	0.031	0.094	0.077	–	–	–	–	–	–	0.0056	–
CNC1CCCN(c2ccc(Nc3c(C(C)=O)cnc4ccc(-c5cc(Cl)c(O)c(Cl)c5)cc34)cn2)C1 (stereo not drawn) [Example 806, 1-(6-(3,5-dichloro-4-hydroxyphenyl)-4-((6-(3-(methylamino)piperidin-1-yl)pyridin-3-yl)amino)quinolin-3-yl)ethanone trihydrochloride]	0.33	0.032	–	0.027	0.039	0.054	–	–	–	–	–	–	–	0.0012
CN1CCN(CCc2cccc(Nc3c(C(=O)C4CC4)cnc4ccc(-c5cc(Cl)c(O)c(Cl)c5)cc34)c2)CC1 [Example 829, cyclopropyl(6-(3,5-dichloro-4-hydroxyphenyl)-4-(3-(2-(4-methylpiperazin-1-yl)ethyl)phenylamino)quinolin-3-yl)methanone]	5.7	0.057	0.0051	0.7	0.23	0.087	–	–	–	–	–	–	–	–
CC(=O)c1cnc2ccc(-c3cc(Cl)c(O)c(Cl)c3)cc2c1N[C@H]1CC[C@H](CN2CCNCC2)CC1 [Example 772, 1-(6-(3,5-dichloro-4-hydroxyphenyl)-4-((trans-4-(piperazin-1-ylmethyl)cyclohexyl)amino)quinolin-3-yl)ethanone dihydrochloride]	3.2	0.076	–	0.058	0.14	0.26	–	–	–	–	–	–	0.0021	–
CC(=O)c1cnc2ccc(-c3cc(F)c(O)c(Cl)c3)cc2c1N[C@H]1CC[C@H](CN2CCNCC2)CC1 [Example 783, 1-(6-(3-chloro-5-fluoro-4-hydroxyphenyl)-4-((trans-4-(piperazin-1-ylmethyl)cyclohexyl)amino)quinolin-3-yl)ethanone dihydrochloride]	4.2	0.057	–	0.027	0.087	0.2	–	–	–	–	–	–	0.0088	–
CNC1CCCN(c2ccc(Nc3c(C(C)=O)cnc4ccc(-c5cc(F)c(O)c(Cl)c5)cc34)cn2)C1 (stereo not drawn) [Example 815, 1-(6-(3-chloro-5-fluoro-4-hydroxyphenyl)-4-((6-(3-(methylamino)piperidin-1-yl)pyridin-3-yl)amino)quinolin-3-yl)ethanone trihydrochloride]	0.052	0.041	0.0018	0.016	0.034	0.041	–	–	–	–	–	–	–	–
CC(=O)c1cnc2ccc(-c3cc(F)c(O)c(Cl)c3)cc2c1Nc1cnn(C2CCN(C)C2)c1 (stereo not drawn) [Example 813, 1-(6-(3-chloro-5-fluoro-4-hydroxyphenyl)-4-((1-(1-methylpyrrolidin-3-yl)-1H-pyrazol-4-yl)amino)quinolin-3-yl)ethanone dihydrochloride]	0.75	0.054	0.0021	0.07	0.11	0.25	–	–	–	–	–	–	–	–
COc1cc(-c2ccc3ncc(C(C)=O)c(N[C@H]4CC[C@H](CN5CCC[C@@H]5CO)CC4)c3c2)cc(Cl)c1O [Example 811]	5.4	0.38	–	0.49	0.45	0.28	–	–	–	–	–	–	0.0027	–
CC(=O)c1cnc2ccc(-c3cc(Cl)c(O)c(Cl)c3)cc2c1N[C@H]1CCC[C@@H](CN(C)C)C1 [Example 827, 1-(6-(3,5-dichloro-4-hydroxyphenyl)-4-((1S,3R)-3-((dimethylamino)methyl)cyclohexylamino)quinolin-3-yl)ethanone hydrochloride]	5.9	0.2	0.0033	0.49	0.43	0.51	–	–	–	–	–	–	–	–
CC(=O)c1cnc2ccc(-c3cc(F)c(O)c(Cl)c3)cc2c1N[C@H]1CC[C@H](CN2CCC[C@H]2CO)CC1 [Example 844, 1-(6-(3-chloro-5-fluoro-4-hydroxyphenyl)-4-((1S,4r)-4-(((S)-2-(hydroxymethyl)pyrrolidin-1-yl)methyl)cyclohexylamino)quinolin-3-yl)ethanone]	3.3	0.092	0.0046	0.067	0.18	0.18	–	–	–	–	–	–	–	–
CNC1CCN(c2ccc(Nc3c(C(=O)C4CC4)cnc4ccc(-c5cc(Cl)c(O)c(Cl)c5)cc34)cn2)C1 (stereo not drawn) [Example 804, cyclopropyl(6-(3,5-dichloro-4-hydroxyphenyl)-4-((6-(3-(methylamino)pyrrolidin-1-yl)pyridin-3-yl)amino)quinolin-3-yl)methanone trihydrochloride]	1.4	0.042	–	0.088	0.1	0.17	–	–	–	–	–	–	0.002	–
CCN(C)C[C@H]1CC[C@H](Nc2c(C(C)=O)cnc3ccc(-c4cc(F)c(O)c(Cl)c4)cc23)CC1 [Example 845]	1.4	0.069	0.00204	0.063	0.11	0.14	–	–	–	–	–	–	–	–
CCC(=O)c1cnc2ccc(-c3cc(F)c(O)c(Cl)c3)cc2c1Nc1ccc(N2CCCC(N)C2)nc1 (stereo not drawn) [Example 825, 1-(4-(6-(3-aminopiperidin-1-yl)pyridin-3-ylamino)-6-(3-chloro-5-fluoro-4-hydroxyphenyl)quinolin-3-yl)propan-1-one]	0.069	0.018	0.0018	0.01	0.016	0.017	–	–	–	–	–	–	–	–
CC(=O)c1c(C)nc2ccc(-c3cc(Cl)c(O)c(Cl)c3)cc2c1Nc1ccc(N2CCN(C)CC2)nc1 [Example 838, 1-(6-(3,5-dichloro-4-hydroxyphenyl)-2-methyl-4-(6-(4-methylpiperazin-1-yl)pyridin-3-ylamino)quinolin-3-yl)ethanone hydrochloride]	25	14	0.097	17	7.2	11	–	–	–	–	–	–	–	–
CNC1CCCN(c2ccc(Nc3c(C(=O)C4CC4)cnc4ccc(-c5cc(Cl)c(O)c(Cl)c5)cc34)cn2)C1 (stereo not drawn) [Example 807, cyclopropyl(6-(3,5-dichloro-4-hydroxyphenyl)-4-((6-(3-(methylamino)piperidin-1-yl)pyridin-3-ylamino)quinolin-3-yl)methanone trihydrochloride]	1.1	0.032	–	0.058	0.055	0.056	–	–	–	–	–	–	0.0015	–
